Results reported in patent US20130231377A1, “PACTAMYCIN ANALOGS AND METHODS OF USE” (State of Oregon acting by and through the state Board of …, priority 2010, published 2013).

Key:
[1] = tested on: HT-29 human colon carcinoma cells; test: SRB growth inhibition assay in HT-29 cells; assay type: cell-based; details: HT-29 cells, 24 hours
Experimental: Growth inhibition of HT-29 cells induced by the test compounds was also evaluated by the SRB assay, which is based on measuring total biomass by staining the cellular proteins with sulforhodamine B (Skehan et al., J. Natl. Cancer Inst., 1990, 82:1107). After treating the HT-29 cells with the compounds for 24 hours, the adherent cells grown in 96-well plates were fixed with 10% trichloroacetic acid and incubated for 1 hour at 4° C. The plates were washed five times with tap water, dried, and stained with SRB solution (0.4% wt/vol in 1% acetic acid) for 30 minutes at room temperature. The plates were again washed and dried before adding 10 mM Tris base to solubilize the bound stain. Optical densities (OD) were read at 564 nm in SpectraMax 250 and cell growth of treated cells was expressed as the percentage of control cells, ODtest/ODcontrol×100%.

[2] = tested on: chloroquine-sensitive clone D6 of P. falciparum; test: Antimalarial activity assay, SYBR Green I fluorescence-based method; assay type: cell-based, Plasmodium falciparum; details: Plasmodium falciparum
Experimental: (§1) An antimalarial activity assay was carried out at the Oregon Translational Research and Drug Development Institute (OTRADI). Two strains of P. falciparum were used. The chloroquine-sensitive clone D6, and chloroquine-resistant and MDR clone Dd2 was obtained from the Malaria Research and Reference Reagent Resource Center (MR4) (Manassas, Va.). The parasites were cultured according to the method of Trager and Jensen (Trager and Jensen, Science, 1976, 193:673-675), with minor modifications. The cultures were maintained in human erythrocytes (Lampire Biological Laboratories, Pipersville, Pa.), suspended at 2% hematocrit in RPMI 1640 (Sigma) containing 0.5% Albumax (Invitrogen), […] hypoxanthine (Lancaster), and 50 μg/L gentamicin (Invitrogen), and incubated at 37° C. under a gas mixture of 5% O2, 5% CO2, and 90% N2. In vitro antimalarial activity was determined by a SYBR Green I fluorescence-based method described previously by Smilkstein et al. (Smilkstein et al., Antimicrob. Agents Chemother., 2004, 48:1803-1806). Frozen stock solutions of each test drug (1 mM in DMSO) were thawed, warmed to 37° C., and mixed thoroughly prior to use. Drug solutions were serially diluted with culture medium, and distributed to asynchronous parasite cultures on 96-well plates in quadruplicate in a total volume of 100 μL to achieve 0.2% parasitemia with a 2% hematocrit in a total volume of 100 μL. Automated pipeting and dilution was carried using programmable Precision XS (Bio-Tek, Winooski, Vt.) and Sciclone ALH3000 (Caliper, Hopkinton, Mass.) robotic stations. The plates then were incubated for 72 hours at temperature and gas conditions described above. After incubation, 100 μL of lysis buffer with SYBR Green I was added to each well. The plates were incubated at room temperature for 1 h and then placed in a 96-well fluorescence plate reader (Synergy4, BioTek, Winooski, Vt.) with excitation and emission wavelength at 485 nm and 528 nm, respectively, for measurement of fluorescence. The 50% inhibitory concentration (IC50) was determined by non-linear regression analysis of logistic dose-response curves (GraphPad Prism software).

[3] = tested on: chloroquine-resistant and MDR clone Dd2 of P. falciparum; test: as above; assay type: cell-based, Plasmodium falciparum
Experimental: as §1

[4] = tested on: human colon cancer HT-29 cells; test: MTT cell viability assay in HT-29 cells; assay type: cell-based
Experimental: The MTT assay was carried out as described by Mosmann (J. Immunol. Methods, 1983, 65:55). Briefly, human colon cancer HT-29 cells (ATCC) were seeded in 96-well plates at a density of 1.0×10^4 cells per well. The growth medium consisted of phenol red-free RPMI 1640 (Invitrogen, Carlsbad, Calif.) containing 10% fetal bovine serum (Invitrogen, Carlsbad, Calif.), glutamine (2 mM), penicillin (100 units/mL) and streptomycin (100 μg/mL). After a 24-hour incubation at 37° C. in a humidified atmosphere of 5% CO2, the medium was removed and replaced with fresh RPMI 1640 medium (with or without 10% FBS and no penicillin or streptomycin). Increasing concentrations of pactamycin, pactamycate, de-6MSA pactamycin, or de-6MSA-pactamycate dissolved in DMSO were added to cells at a volume of 0.2 mL/well. DMSO was added to control media not to exceed a final concentration of 1%. Following a 24-hour incubation, the medium was aspirated from each well and replaced with fresh RPMI medium with 10% FBS and MTT (0.5 mg/mL). […] The plate was shaken for 10 minutes before reading the absorbance at 570 nm using a microplate reader (SpectraMax 250, Molecular Devices, Sunnyvale, Calif., USA). The viability of treated cells was expressed as the percentage of control cells. […]

[5] = tested on: E. coli; test: Antibacterial agar diffusion assay (Example 2); assay type: cell-based, Escherichia coli
Experimental: (§2) Antibacterial activity of pactamycin and its analogues was determined by an agar diffusion assay. E. coli, Pseudomonas aeruginosa, Mycobacterium smegmatis, and Staphylococcus aureus were streaked on nutrient agar (Difco) and grown overnight at 37° C. Colonies were transferred to nutrient broth and incubated at 37° C. for 24 hours. Turbidity of the inoculum was measured to a proper density at 600 nm (BioRad, SmartSpec 3000). For plate preparation, inoculum (500 μL) was mixed thoroughly with warm nutrient agar (50 mL) and poured to 25 mL square plates. The agar plates were allowed to solidify and dry for 30 minutes before assay. Sterile blank paper disks (Becton-Dickinson) were impregnated with pactamycin and its analogues (20 μL) at various concentrations and dried at room temperature. The disks were placed onto inoculated agar plates and incubated at 37° C. for 24 hours. In order to produce a contrast background of the inhibition zone, 0.25% MTT developing dye (1 mL) was added over the plates.

[6] = tested on: Gram-positive and Gram-negative bacteria (S. aureus, M. smegmatis, P. aeruginosa, E. coli); test: Antibacterial dose-response studies, broth microdilution (Example 2); assay type: cell-based; details: 0.01 (or 0.1)-100 μM
Experimental: Dose response assays were performed at a 100-μL volume in 200 μL Eppendorf tubes. The compounds were diluted and added to the bacterial suspension at final concentrations of 0.01 (or 0.1)-100 μM. After incubation at 37° C. for 24 hours, turbidity of cultures was measured at 600 nm (Biorad, SmartSpec 3000). Each assay was done in triplicate.
To further evaluate and compare the in vitro efficacy of de-6MSA-pactamycin with that of pactamycin, dose-response studies were done using a broth microdilution method with 0.01 (or 0.1)-100 μM concentrations of pactamycin and de-6MSA-pactamycin (FIGS. 16A-16D). […] Both pactamycin and de-6MSA-pactamycin were maximally active between 1 and 10 μM and effective against both Gram-positive and Gram-negative bacteria.

[7] = tested on: Pseudomonas aeruginosa; test: Antibacterial agar diffusion assay (Example 2); assay type: cell-based
Experimental: as §2

[8] = tested on: Staphylococcus aureus; test: Antibacterial agar diffusion assay (Example 2); assay type: cell-based
Experimental: as §2

[9] = tested on: Mycobacterium smegmatis; test: Antibacterial agar diffusion assay (Example 2); assay type: cell-based
Experimental: as §2

[10] = tested on: Pseudomonas aeruginosa; test: Antibacterial micro-dilution assay (Example 1); assay type: cell-based; details: 24 hours, read-out: IC50 against Pseudomonas aeruginosa
Experimental: (§3) The antibacterial activity of pactamycin and its analogs was determined by agar diffusion and micro-dilution assays. E. coli, P. aeruginosa, B. subtilis or M. smegmatis, and S. aureus were streaked on nutrient agar (Difco or Beckton-Dickinson) and grown overnight at 37° C. Colonies were transferred to nutrient broth and incubated at 37° C. for 24 hours. Turbidity of the inoculum was measured to a proper density at 600 nm (BioRad, SmartSpec 3000). For plate preparation, inoculum (500 μL) was mixed thoroughly with warm nutrient agar (50 mL) and poured to 25 mL square plates. The agar plates were allowed to solidify and dry for 30 min before assay. Sterile blank paper disks (Becton-Dickinson) were impregnated with pactamycin and its analogs (20 μL) at various concentrations and dried at room temperature. The disks were placed onto inoculated agar plates and incubated at 37° C. for 24 hours. In order to produce a contrast background of the inhibition zone, 0.25% MTT developing dye (1 mL) was added over the plates.
(§4) Micro-dilution assays were performed in 96-well plates. The compounds were serially diluted and added to the bacterial suspension at final concentrations of 1 mM-10 nM, or 0.5 mM-10 nM. After incubation at 37° C. for 24 hours, 0.25% MTT developing dye (50 μL) was added. Each assay was done in triplicate.

[11] = tested on: Staphylococcus aureus; test: Antibacterial micro-dilution assay (Example 1); assay type: cell-based; details: 24 hours, read-out: IC50 against Staphylococcus aureus
Experimental: as §3, §4

[12] = tested on: Escherichia coli; test: Antibacterial micro-dilution assay (Example 1); assay type: cell-based; details: 24 hours, read-out: IC50 against Escherichia coli
Experimental: as §3, §4

[13] = tested on: Bacillus subtilis; test: Antibacterial micro-dilution assay (Example 1); assay type: cell-based; details: 24 hours, read-out: IC50 against Bacillus subtilis
Experimental: as §3, §4

[14] = Cytotoxicity assay (WST-8) against HCT116 cells; assay type: cell-based; details: human, HCT116 colorectal carcinoma cells, estimated
Experimental: HCT116 (colorectal carcinoma) cells were seeded onto a 96-well plate at 10,000 cells per well. Cells were treated with either 5, 50, 500 or 5000 nM TM-025, TM-026, N-acetyl-glucosaminyl-3-aminoacetophenone or 5, 25, 50, 100 nM pactamycin in triplicate for 48 hours. For the narrow range concentration assays, cells were treated with either 0.5, 1, 2 or 4 μM TM-025; 1, 2, 3 or 5 μM TM-026; 0.5, 2, 5 or 7 μM N-acetylglucosaminyl-3-aminoacetophenone or 12.5, 25, 50, 100 nM pactamycin in triplicate for 24 or 48 hours. WST-8 [2-(2-methoxy-4-nitrophenyl)-3-[…], monosodium salt] (Dojindo, Rockville, Md.) was added to each well to give an orange-colored formazan product, which is soluble in tissue culture medium. Absorbance was measured at 450 nm. Percent of viable cells was calculated relative to the “No Treatment” and “Solvent Only” wells.

[15] = tested on: Gram-positive and Gram-negative bacteria; test: Antibacterial agar diffusion and micro-dilution assays, all tested strains (Example 1); assay type: cell-based, S. aureus, B. subtilis, P. aeruginosa, E. coli; details: at the concentrations used
Experimental: as §3, §4

| SMILES | cytotoxicity profile (SRB-based assay) [1] | EC50 ([2]; D6, Example 2, FIG. 14, read-out: EC50 against the D6 strain) [µM] | EC50 ([3]; Plasmodium falciparum, Example 2, FIG. 14, multi-drug resistant Dd2, read-out: EC50 against the Dd2 strain) [µM] | times more effective than chloroquine against Dd2 ([3]; relative to chloroquine) [times] | cytotoxicity profile (MTT-based assay) [4] | antibacterial activity, growth of E. coli [5] | biological activity compared with pactamycin in dose-response studies [6] | antibacterial activity, growth of Pseudomonas aeruginosa [7] | antibacterial activity, growth of Staphylococcus aureus [8] | antibacterial activity, growth of Mycobacterium smegmatis [9] | IC50 ([2]; D6, 72 h, P. falciparum D6, 72 hours, read-out: Antimalarial IC50 (D6)) [µM] | IC90 ([2]; D6, 72 h, P. falciparum D6, 72 hours, read-out: Antimalarial IC90 (D6)) [µM] | IC50 ([3]; Plasmodium falciparum, DD2, 72 h, P. falciparum Dd2, 72 hours, read-out: Antimalarial IC50 (Dd2)) [µM] | IC90 ([3]; Plasmodium falciparum, DD2, 72 h, P. falciparum Dd2, 72 hours, read-out: Antimalarial IC90 (Dd2)) [µM] | IC50 [10] [µM] | IC50 [11] [µM] | IC50 [12] [µM] | IC50 [13] [µM] | IC50 [14] [µM] | antibacterial activity in agar diffusion and micro-dilution assays (in words) [15] |
| --- | --- | --- | --- | --- | --- | --- | --- | --- | --- | --- | --- | --- | --- | --- | --- | --- | --- | --- | --- | --- |
| CC(=O)c1cccc(N[C@H]2[C@H](N)[C@@](NC(=O)N(C)C)([C@H](C)O)[C@@](C)(O)[C@@]2(O)CO)c1 [de-6MSA-pactamycin] | equivalent cytotoxicity profiles with the respective parent compounds | 0.007 | 0.009 | 10 | equivalent cytotoxicity profiles with the respective parent compounds | inhibited the growth | equivalent biological activity with the parent molecule | inhibited the growth | inhibited the growth | inhibited the growth | – | – | – | – | – | – | – | – | – | – |
| CC(=O)c1cccc(N[C@H]2[C@H](N)[C@@](NC(=O)N(C)C)([C@H](C)O)[C@@](C)(O)[C@@]2(O)COC(=O)c2c(C)cccc2O)c1 [pactamycin] | – | – | – | – | – | inhibited the growth | – | inhibited the growth | inhibited the growth | inhibited the growth | ~0.024 | 0.124 | ~0.021 | 0.187 | ~500 | ~10 | ~100 | ~500 | ~0.1 | strong antibacterial activity |
